Experiment: Dilution stability of epothilone D formulations, visual appearance
Format: physicochemical
Design: key: remained clear; ppt: precipitation; xtal: crystallization
Settings: for Visual Appearance RODI Dilution 0 h / Visual Appearance RODI Dilution 12 h / Visual Appearance RODI Dilution 24 h / Visual Appearance RODI Dilution 36 h / Visual Appearance RODI Dilution 48 h: 1:10 into RODI water; for Visual Appearance Initial: undiluted
Method: The dilution stability of epothilone D formulations at 8-20 mg/mL in various formulations was examined. A stock solution of epothilone D (100 mg/mL) was prepared in ethanol. Epothilone D formulations were prepared as listed in the following tables by addition of the requisite amount of ethanol, PEG400, 10% Tween® 80, and either propylene glycol or glycerol to the appropriate volume of the epothilone D stock solution. The solubility of epothilone D in each vial was observed visually following gentle swirling. Each formulation was syringe filtered through a 0.2 micron PVDF filter. Each formulation was subsequently diluted 1:8, 1:10, or 1:12 in reverse osmosis deionized water (RODI) or 0.9% saline. Visual observations were taken upon preparation, upon dilution, and both 1 and 24 hours after incubation at ambient temperature.
The dilution stability up to 48 hours post-dilution was examined for the above formulations containg 8-11 mg/mL of epothilone D after 1:10 dilution into either RODI water or 0.45% saline, as summarized in Tables 12 and 13 below.

[1] = 8 mg/mL epo D in 10% Tween 80, 50% ethanol, 30% PEG400, 10% propylene glycol
[2] = 8 mg/mL epo D in 10% Tween 80, 50% ethanol, 30% PEG400, 10% propylene glycol, 0.9% saline
[3] = 8 mg/mL epo D in 10% Tween 80, 50% ethanol, 30% PEG400, 10% propylene glycol, 1:10 into 0.45% saline
[4] = 8 mg/mL epo D in 10% Tween 80, 60% ethanol, 20% PEG400, 10% glycerol
[5] = 8 mg/mL epo D in 10% Tween 80, 60% ethanol, 20% PEG400, 10% glycerol, 0.9% saline
[6] = 8 mg/mL epo D in 10% Tween 80, 60% ethanol, 20% PEG400, 10% glycerol, 1:10 into 0.45% saline
[7] = 9 mg/mL epo D in 10% Tween 80, 50% ethanol, 30% PEG400, 10% propylene glycol, 1:10 into 0.45% saline
[8] = 9 mg/mL epo D in 10% Tween 80, 50% ethanol, 30% PEG400, 10% propylene glycol
[9] = 9 mg/mL epo D in 10% Tween 80, 60% ethanol, 20% PEG400, 10% glycerol, 1:10 into 0.45% saline
[10] = 9 mg/mL epo D in 10% Tween 80, 60% ethanol, 20% PEG400, 10% glycerol
[11] = 10 mg/mL epo D in 10% Tween 80, 50% ethanol, 30% PEG400, 10% propylene glycol
[12] = 10 mg/mL epo D in 10% Tween 80, 50% ethanol, 30% PEG400, 10% propylene glycol, 0.9% saline
[13] = 10 mg/mL epo D in 10% Tween 80, 50% ethanol, 30% PEG400, 10% propylene glycol, 1:10 into 0.45% saline
[14] = 10 mg/mL epo D in 10% Tween 80, 60% ethanol, 20% PEG400, 10% glycerol
[15] = 10 mg/mL epo D in 10% Tween 80, 60% ethanol, 20% PEG400, 10% glycerol, 0.9% saline
[16] = 10 mg/mL epo D in 10% Tween 80, 60% ethanol, 20% PEG400, 10% glycerol, 1:10 into 0.45% saline
[17] = 11 mg/mL epo D in 10% Tween 80, 50% ethanol, 30% PEG400, 10% propylene glycol, 1:10 into 0.45% saline
[18] = 11 mg/mL epo D in 10% Tween 80, 50% ethanol, 30% PEG400, 10% propylene glycol
[19] = 11 mg/mL epo D in 10% Tween 80, 60% ethanol, 20% PEG400, 10% glycerol, 1:10 into 0.45% saline
[20] = 11 mg/mL epo D in 10% Tween 80, 60% ethanol, 20% PEG400, 10% glycerol
[21] = 12 mg/mL epo D in 10% Tween 80, 50% ethanol, 30% PEG400, 10% propylene glycol
[22] = 12 mg/mL epo D in 10% Tween 80, 50% ethanol, 30% PEG400, 10% propylene glycol, 0.9% saline
[23] = 12 mg/mL epo D in 10% Tween 80, 60% ethanol, 20% PEG400, 10% glycerol
[24] = 12 mg/mL epo D in 10% Tween 80, 60% ethanol, 20% PEG400, 10% glycerol, 0.9% saline
[25] = 16 mg/mL epo D in 10% Tween 80, 50% ethanol, 30% PEG400, 10% propylene glycol
[26] = 16 mg/mL epo D in 10% Tween 80, 50% ethanol, 30% PEG400, 10% propylene glycol, 0.9% saline
[27] = 16 mg/mL epo D in 10% Tween 80, 60% ethanol, 20% PEG400, 10% glycerol
[28] = 16 mg/mL epo D in 10% Tween 80, 60% ethanol, 20% PEG400, 10% glycerol, 0.9% saline
[29] = 20 mg/mL epo D in 10% Tween 80, 50% ethanol, 30% PEG400, 10% propylene glycol
[30] = 20 mg/mL epo D in 10% Tween 80, 50% ethanol, 30% PEG400, 10% propylene glycol, 0.9% saline
[31] = 20 mg/mL epo D in 10% Tween 80, 60% ethanol, 20% PEG400, 10% glycerol
[32] = 20 mg/mL epo D in 10% Tween 80, 60% ethanol, 20% PEG400, 10% glycerol, 0.9% saline
[33] = Table 12: 10 mg/mL epo D in 10% Tween 80, 60% ethanol, 20% PEG400, 10% glycerol
[34] = Table 13: 10 mg/mL epo D in 10% Tween 80, 50% ethanol, 30% PEG400, 10% propylene glycol

## C/C1=C/CC(/C(C)=C/c2csc(C)n2)OC(=O)C[C@H](O)C(C)(C)C(=O)[C@H](C)[C@@H](O)[C@@H](C)CCC1 (some centres unmarked) [Epothilone D, Desoxyepothilone B]
[1]
  Visual Appearance RODI Dilution 1:08 0 h: clear
  Visual Appearance RODI Dilution 1:08 24 h: clear
  Visual Appearance RODI Dilution 1:10 0 h: clear
  Visual Appearance RODI Dilution 1:10 24 h: clear
  Visual Appearance RODI Dilution 1:12 0 h: clear
  Visual Appearance RODI Dilution 1:12 24 h: clear
  Visual Appearance RODI Dilution 0 h: clear
  Visual Appearance RODI Dilution 12 h: clear
  Visual Appearance RODI Dilution 24 h: clear
  Visual Appearance RODI Dilution 36 h: clear
  Visual Appearance RODI Dilution 48 h: clear
  Visual Appearance Initial: clear
[2]
  Visual Appearance Saline Dilution 1:08 1 h: xtal
  Visual Appearance Saline Dilution 1:10 1 h: xtal
  Visual Appearance Saline Dilution 1:12 1 h: clear
  Visual Appearance Saline Dilution 1:12 24 h: xtal
[3]
  Visual Appearance Saline Dilution 0 h: clear
  Visual Appearance Saline Dilution 12 h: xtal
[4]
  Visual Appearance RODI Dilution 1:08 0 h: clear
  Visual Appearance RODI Dilution 1:08 24 h: clear
  Visual Appearance RODI Dilution 1:10 0 h: clear
  Visual Appearance RODI Dilution 1:10 24 h: clear
  Visual Appearance RODI Dilution 1:12 0 h: clear
  Visual Appearance RODI Dilution 1:12 24 h: clear
  Visual Appearance RODI Dilution 0 h: clear
  Visual Appearance RODI Dilution 12 h: clear
  Visual Appearance RODI Dilution 24 h: clear
  Visual Appearance RODI Dilution 36 h: xtal
  Visual Appearance Initial: clear
[5]
  Visual Appearance Saline Dilution 1:08 1 h: clear
  Visual Appearance Saline Dilution 1:08 24 h: xtal
  Visual Appearance Saline Dilution 1:10 1 h: xtal
  Visual Appearance Saline Dilution 1:12 1 h: xtal
[6]
  Visual Appearance Saline Dilution 0 h: clear
  Visual Appearance Saline Dilution 12 h: xtal
[7]
  Visual Appearance Saline Dilution 0 h: clear
  Visual Appearance Saline Dilution 12 h: xtal
[8]
  Visual Appearance RODI Dilution 0 h: clear
  Visual Appearance RODI Dilution 12 h: clear
  Visual Appearance RODI Dilution 24 h: clear
  Visual Appearance RODI Dilution 36 h: clear
  Visual Appearance RODI Dilution 48 h: clear
[9]
  Visual Appearance Saline Dilution 0 h: clear
  Visual Appearance Saline Dilution 12 h: xtal
[10]
  Visual Appearance RODI Dilution 0 h: clear
  Visual Appearance RODI Dilution 12 h: clear
  Visual Appearance RODI Dilution 24 h: clear
  Visual Appearance RODI Dilution 36 h: xtal
[11]
  Visual Appearance RODI Dilution 1:08 0 h: clear
  Visual Appearance RODI Dilution 1:08 24 h: clear
  Visual Appearance RODI Dilution 1:10 0 h: clear
  Visual Appearance RODI Dilution 1:10 24 h: clear
  Visual Appearance RODI Dilution 1:12 0 h: clear
  Visual Appearance RODI Dilution 1:12 24 h: clear
  Visual Appearance Initial: clear
[12]
  Visual Appearance Saline Dilution 1:08 1 h: xtal
  Visual Appearance Saline Dilution 1:10 1 h: xtal
  Visual Appearance Saline Dilution 1:12 1 h: xtal
[13]
  Visual Appearance Saline Dilution 0 h: clear
  Visual Appearance Saline Dilution 12 h: clear
  Visual Appearance Saline Dilution 24 h: clear
  Visual Appearance Saline Dilution 36 h: xtal
[14]
  Visual Appearance RODI Dilution 1:08 0 h: clear
  Visual Appearance RODI Dilution 1:08 24 h: clear
  Visual Appearance RODI Dilution 1:10 0 h: clear
  Visual Appearance RODI Dilution 1:10 24 h: clear
  Visual Appearance RODI Dilution 1:12 0 h: clear
  Visual Appearance RODI Dilution 1:12 24 h: clear
  Visual Appearance Initial: clear
[15]
  Visual Appearance Saline Dilution 1:08 1 h: clear
  Visual Appearance Saline Dilution 1:08 24 h: xtal
  Visual Appearance Saline Dilution 1:10 1 h: xtal
  Visual Appearance Saline Dilution 1:12 1 h: xtal
[16]
  Visual Appearance Saline Dilution 0 h: clear
  Visual Appearance Saline Dilution 12 h: xtal
[17]
  Visual Appearance Saline Dilution 0 h: clear
  Visual Appearance Saline Dilution 12 h: xtal
[18]
  Visual Appearance RODI Dilution 0 h: clear
  Visual Appearance RODI Dilution 12 h: xtal
  Visual Appearance Initial: clear
[19]
  Visual Appearance Saline Dilution 0 h: clear
  Visual Appearance Saline Dilution 12 h: xtal
[20]
  Visual Appearance RODI Dilution 0 h: clear
  Visual Appearance RODI Dilution 12 h: xtal
  Visual Appearance Initial: clear
[21]
  Visual Appearance RODI Dilution 1:08 0 h: clear
  Visual Appearance RODI Dilution 1:08 24 h: clear
  Visual Appearance RODI Dilution 1:10 0 h: clear
  Visual Appearance RODI Dilution 1:10 24 h: clear
  Visual Appearance RODI Dilution 1:12 0 h: clear
  Visual Appearance RODI Dilution 1:12 24 h: xtal
  Visual Appearance Initial: clear
[22]
  Visual Appearance Saline Dilution 1:08 1 h: xtal
  Visual Appearance Saline Dilution 1:10 1 h: xtal
  Visual Appearance Saline Dilution 1:12 1 h: xtal
[23]
  Visual Appearance RODI Dilution 1:08 0 h: clear
  Visual Appearance RODI Dilution 1:08 24 h: clear
  Visual Appearance RODI Dilution 1:10 0 h: clear
  Visual Appearance RODI Dilution 1:10 24 h: clear
  Visual Appearance RODI Dilution 1:12 0 h: clear
  Visual Appearance RODI Dilution 1:12 24 h: xtal
  Visual Appearance Initial: clear
[24]
  Visual Appearance Saline Dilution 1:08 1 h: xtal
  Visual Appearance Saline Dilution 1:10 1 h: xtal
  Visual Appearance Saline Dilution 1:12 1 h: xtal
[25]
  Visual Appearance RODI Dilution 1:08 0 h: ppt
  Visual Appearance RODI Dilution 1:10 0 h: ppt
  Visual Appearance RODI Dilution 1:12 0 h: ppt
  Visual Appearance Initial: clear
[26]
  Visual Appearance Saline Dilution 1:08 1 h: ppt
  Visual Appearance Saline Dilution 1:10 1 h: ppt
  Visual Appearance Saline Dilution 1:12 1 h: ppt
[27]
  Visual Appearance RODI Dilution 1:08 0 h: ppt
  Visual Appearance RODI Dilution 1:10 0 h: ppt
  Visual Appearance RODI Dilution 1:12 0 h: ppt
  Visual Appearance Initial: clear
[28]
  Visual Appearance Saline Dilution 1:08 1 h: ppt
  Visual Appearance Saline Dilution 1:10 1 h: ppt
  Visual Appearance Saline Dilution 1:12 1 h: ppt
[29]
  Visual Appearance RODI Dilution 1:08 0 h: ppt
  Visual Appearance RODI Dilution 1:10 0 h: ppt
  Visual Appearance RODI Dilution 1:12 0 h: ppt
  Visual Appearance Initial: clear
[30]
  Visual Appearance Saline Dilution 1:08 1 h: ppt
  Visual Appearance Saline Dilution 1:10 1 h: ppt
  Visual Appearance Saline Dilution 1:12 1 h: ppt
[31]
  Visual Appearance RODI Dilution 1:08 0 h: ppt
  Visual Appearance RODI Dilution 1:10 0 h: ppt
  Visual Appearance RODI Dilution 1:12 0 h: ppt
  Visual Appearance Initial: clear
[32]
  Visual Appearance Saline Dilution 1:08 1 h: ppt
  Visual Appearance Saline Dilution 1:10 1 h: ppt
  Visual Appearance Saline Dilution 1:12 1 h: ppt
Table 12: 8 mg/mL epo D in 10% Tween 80, 60% ethanol, 20% PEG400, 10% glycerol
  Visual Appearance Initial: clear
Table 12: 9 mg/mL epo D in 10% Tween 80, 60% ethanol, 20% PEG400, 10% glycerol
  Visual Appearance Initial: clear
[33]
  Visual Appearance RODI Dilution 0 h: clear
  Visual Appearance RODI Dilution 12 h: clear
  Visual Appearance RODI Dilution 24 h: clear
  Visual Appearance RODI Dilution 36 h: clear
  Visual Appearance RODI Dilution 48 h: xtal
  Visual Appearance Initial: clear
Table 13: 8 mg/mL epo D in 10% Tween 80, 50% ethanol, 30% PEG400, 10% propylene glycol
  Visual Appearance Initial: clear
Table 13: 9 mg/mL epo D in 10% Tween 80, 50% ethanol, 30% PEG400, 10% propylene glycol
  Visual Appearance Initial: clear
[34]
  Visual Appearance RODI Dilution 0 h: clear
  Visual Appearance RODI Dilution 12 h: clear
  Visual Appearance RODI Dilution 24 h: clear
  Visual Appearance RODI Dilution 36 h: clear
  Visual Appearance RODI Dilution 48 h: clear
  Visual Appearance Initial: clear
